According to ChEMBL document CHEMBL3792365, “Dioxol and dihydrodioxin analogs of 2- and 3-phenylacetonitriles as potent anti-cancer agents with nanomolar activity against a variety of human cancer cells” (2016):

Columns and labels:
Assay type in all cases: functional
[1] = Growth inhibition of human RXF393 cells at 10 uM after 48 hrs by sulforhodamine B assay; conditions: RXF 393, 48 h, values are per cent of control
786-0 = experiment: Growth inhibition of human 786-0 cells at 10 uM after 48 hrs by sulforhodamine B assay; conditions: 786-0, 48 h, values are per cent of control
[2] = Growth inhibition of human HCT116 cells at 10 uM after 48 hrs by sulforhodamine B assay; conditions: HCT-116, 48 h, values are per cent of control
HT-29 = experiment: Growth inhibition of human HT-29 cells at 10 uM after 48 hrs by sulforhodamine B assay; conditions: HT-29, 48 h, values are per cent of control
A549 = experiment: Growth inhibition of human A549/ATCC cells at 10 uM after 48 hrs by sulforhodamine B assay; conditions: A549, 48 h, values are per cent of control
T47D = experiment: Growth inhibition of human T47D cells at 10 uM after 48 hrs by sulforhodamine B assay; conditions: values are per cent of control
[3] = Growth inhibition of human SF268 cells at 10 uM after 48 hrs by sulforhodamine B assay; conditions: SF-268, 48 h, values are per cent of control
SK-MEL-5 = experiment: Growth inhibition of human SK-MEL-5 cells at 10 uM after 48 hrs by sulforhodamine B assay; conditions: SK-MEL-5, 48 h, values are per cent of control
MDA-MB-468 = experiment: Growth inhibition of human MDA-MB-468 cells at 10 uM after 48 hrs by sulforhodamine B assay; conditions: MDA-MB-468, 48 h, values are per cent of control
[4] = Growth inhibition of human SW620 cells at 10 uM after 48 hrs by sulforhodamine B assay; conditions: SW-620, 48 h, values are per cent of control
[5] = Growth inhibition of human DU145 cells at 10 uM after 48 hrs by sulforhodamine B assay; conditions: DU-145, 48 h, values are per cent of control
[6] = Growth inhibition of human HOP62 cells at 10 uM after 48 hrs by sulforhodamine B assay; conditions: HOP-62, 48 h, values are per cent of control
KM12 = experiment: Growth inhibition of human KM12 cells at 10 uM after 48 hrs by sulforhodamine B assay; conditions: KM12, 48 h, values are per cent of control
[7] = Growth inhibition of human BT549 cells at 10 uM after 48 hrs by sulforhodamine B assay; conditions: BT-549, 48 h, values are per cent of control
NCI-H522 = experiment: Growth inhibition of human NCI-H522 cells at 10 uM after 48 hrs by sulforhodamine B assay; conditions: NCI-H522, 48 h, values are per cent of control
ACHN = experiment: Growth inhibition of human ACHN cells at 10 uM after 48 hrs by sulforhodamine B assay; conditions: values are per cent of control
[8] = Growth inhibition of human IGROV1 cells at 10 uM after 48 hrs by sulforhodamine B assay; conditions: IGROV-1, 48 h, values are per cent of control
[9] = Growth inhibition of human SF539 cells at 10 uM after 48 hrs by sulforhodamine B assay; conditions: SF-539, 48 h, values are per cent of control
NCI-H226 = experiment: Growth inhibition of human NCI-H226 cells at 10 uM after 48 hrs by sulforhodamine B assay; conditions: NCI-H226, 48 h, values are per cent of control
[10] = Growth inhibition of human COLO205 cells at 10 uM after 48 hrs by sulforhodamine B assay; conditions: COLO 205, 48 h, values are per cent of control
NCI-H460 = experiment: Growth inhibition of human NCI-H460 cells at 10 uM after 48 hrs by sulforhodamine B assay; conditions: NCI-H460, 48 h, values are per cent of control
[11] = Growth inhibition of human Caki1 cells at 10 uM after 48 hrs by sulforhodamine B assay; conditions: CAKI-1, 48 h, values are per cent of control
NCI-H322M = experiment: Growth inhibition of human NCI-H322M cells at 10 uM after 48 hrs by sulforhodamine B assay; conditions: values are per cent of control
[12] = Growth inhibition of human UACC62 cells at 10 uM after 48 hrs by sulforhodamine B assay; conditions: UACC-62, 48 h, values are per cent of control
SK-MEL-28 = experiment: Growth inhibition of human SK-MEL-28 cells at 10 uM after 48 hrs by sulforhodamine B assay; conditions: SK-MEL-28, 48 h, values are per cent of control
[13] = Growth inhibition of human HCT15 cells at 10 uM after 48 hrs by sulforhodamine B assay; conditions: HCT-15, 48 h, values are per cent of control
SK-MEL-2 = experiment: Growth inhibition of human SK-MEL-2 cells at 10 uM after 48 hrs by sulforhodamine B assay; conditions: SK-MEL-2, 48 h, values are per cent of control
[14] = Growth inhibition of human TK10 cells at 10 uM after 48 hrs by sulforhodamine B assay; conditions: TK-10, 48 h, values are per cent of control
[15] = Growth inhibition of human SKOV3 cells at 10 uM after 48 hrs by sulforhodamine B assay; conditions: SK-OV-3, 48 h, values are per cent of control
SN12C = experiment: Growth inhibition of human SN12C cells at 10 uM after 48 hrs by sulforhodamine B assay; conditions: values are per cent of control
[16] = Growth inhibition of human SNB19 cells at 10 uM after 48 hrs by sulforhodamine B assay; conditions: SNB-19, 48 h, values are per cent of control
MDA-MB-435 = experiment: Growth inhibition of human MDA-MB-435 cells at 10 uM after 48 hrs by sulforhodamine B assay; conditions: MDA-MB-435, 48 h, values are per cent of control
[17] = Growth inhibition of human NCI-ADR-RES cells at 10 uM after 48 hrs by sulforhodamine B assay; conditions: values are per cent of control
[18] = Growth inhibition of human OVCAR4 cells at 10 uM after 48 hrs by sulforhodamine B assay; conditions: OVCAR-4, 48 h, values are per cent of control
[19] = Growth inhibition of human HCC2998 cells at 10 uM after 48 hrs by sulforhodamine B assay; conditions: HCC 2998, 48 h, values are per cent of control
MDA-MB-231 = experiment: Growth inhibition of human MDA-MB-231 cells at 10 uM after 48 hrs by sulforhodamine B assay; conditions: MDA-MB-231, 48 h, values are per cent of control
SR = experiment: Growth inhibition of human SR cells at 10 uM after 48 hrs by sulforhodamine B assay; conditions: values are per cent of control
K562 = experiment: Growth inhibition of human K562 cells at 10 uM after 48 hrs by sulforhodamine B assay; conditions: K562, 48 h, values are per cent of control
M14 = experiment: Growth inhibition of human M14 cells at 10 uM after 48 hrs by sulforhodamine B assay; conditions: M14, 48 h, values are per cent of control
[20] = Growth inhibition of human SNB75 cells at 10 uM after 48 hrs by sulforhodamine B assay; conditions: SNB-75, 48 h, values are per cent of control

SMILES	growth, % of control at 10 µM [1] [%]	growth, % of control at 10 µM (786-0) [%]	growth, % of control at 10 µM [2] [%]	growth, % of control at 10 µM (HT-29) [%]	growth, % of control at 10 µM (A549) [%]	growth, % of control at 10 µM (T47D) [%]	growth, % of control at 10 µM [3] [%]	growth, % of control at 10 µM (SK-MEL-5) [%]	growth, % of control at 10 µM (MDA-MB-468) [%]	growth, % of control at 10 µM [4] [%]	growth, % of control at 10 µM [5] [%]	growth, % of control at 10 µM [6] [%]	growth, % of control at 10 µM (KM12) [%]	growth, % of control at 10 µM [7] [%]	growth, % of control at 10 µM (NCI-H522) [%]	growth, % of control at 10 µM (ACHN) [%]	growth, % of control at 10 µM [8] [%]	growth, % of control at 10 µM [9] [%]	growth, % of control at 10 µM (NCI-H226) [%]	growth, % of control at 10 µM [10] [%]	also measured
N#C/C(=C\c1ccc2c(c1)OCO2)c1ccc2c(c1)OCO2	94.7	90	57.5	39.6	59.5	67.7	81.2	75.9	54.9	42.9	92.5	76.7	42.2	49.6	76.4	96.2	66.1	79.4	94.9	59.8	growth, % of control at 10 µM (NCI-H460): 83.6%; growth, % of control at 10 µM [11]: 66.8%; growth, % of control at 10 µM (NCI-H322M): 106%; growth, % of control at 10 µM [12]: 69.4%; growth, % of control at 10 µM (SK-MEL-28): 88.5%; growth, % of control at 10 µM [13]: 43.9%; growth, % of control at 10 µM (SK-MEL-2): 63.5%; growth, % of control at 10 µM [14]: 91%; growth, % of control at 10 µM [15]: 85.5%; growth, % of control at 10 µM (SN12C): 90.7%; growth, % of control at 10 µM [16]: 95.9%; growth, % of control at 10 µM (MDA-MB-435): -5.7%; growth, % of control at 10 µM [17]: 41%; growth, % of control at 10 µM [18]: 89.7%; growth, % of control at 10 µM [19]: 72.3%; growth, % of control at 10 µM (MDA-MB-231): 66.8%; growth, % of control at 10 µM (SR): 26.2%; growth, % of control at 10 µM (K562): 24.9%; growth, % of control at 10 µM (M14): 50.8%; growth, % of control at 10 µM [20]: 94.3%
COc1ccc(/C=C(\C#N)c2ccc3c(c2)OCO3)c(OC)c1	40.3	52.1	19.3	10	36.4	43.5	53.1	31.7	8.3	31.9	63.9	54	28.1	35.3	43.3	59.1	45.1	19	73.8	25.4	growth, % of control at 10 µM (NCI-H460): 36%; growth, % of control at 10 µM [11]: 40%; growth, % of control at 10 µM (NCI-H322M): 67.6%; growth, % of control at 10 µM [12]: 39.7%; growth, % of control at 10 µM (SK-MEL-28): 50.2%; growth, % of control at 10 µM [13]: 24.4%; growth, % of control at 10 µM (SK-MEL-2): 2.7%; growth, % of control at 10 µM [14]: 49.7%; growth, % of control at 10 µM [15]: 33.2%; growth, % of control at 10 µM (SN12C): 53.3%; growth, % of control at 10 µM [16]: 55.6%; growth, % of control at 10 µM (MDA-MB-435): -28.6%; growth, % of control at 10 µM [17]: 20.3%; growth, % of control at 10 µM [18]: 73.7%; growth, % of control at 10 µM [19]: 60.5%; growth, % of control at 10 µM (MDA-MB-231): 48.9%; growth, % of control at 10 µM (SR): 15.5%; growth, % of control at 10 µM (K562): 15.9%; growth, % of control at 10 µM (M14): 16.4%; growth, % of control at 10 µM [20]: 12.8%
COc1ccc(/C=C(\C#N)c2ccc3c(c2)OCO3)cn1	86.5	107	82.6	63.8	77.4	81	91	84.1	60.8	86.1	97.4	88.1	63.9	81	79.8	93.4	90.6	83.1	93.3	97.6	growth, % of control at 10 µM (NCI-H460): 95.2%; growth, % of control at 10 µM [11]: 75.3%; growth, % of control at 10 µM (NCI-H322M): 98.3%; growth, % of control at 10 µM [12]: 79.9%; growth, % of control at 10 µM (SK-MEL-28): 95.1%; growth, % of control at 10 µM [13]: 78%; growth, % of control at 10 µM (SK-MEL-2): 93.2%; growth, % of control at 10 µM [14]: 80.4%; growth, % of control at 10 µM [15]: 83.1%; growth, % of control at 10 µM (SN12C): 92.6%; growth, % of control at 10 µM [16]: 96.4%; growth, % of control at 10 µM (MDA-MB-435): 37.2%; growth, % of control at 10 µM [17]: 86%; growth, % of control at 10 µM [18]: 81.6%; growth, % of control at 10 µM [19]: 93.2%; growth, % of control at 10 µM (MDA-MB-231): 75.6%; growth, % of control at 10 µM (SR): 50.1%; growth, % of control at 10 µM (K562): 64.2%; growth, % of control at 10 µM (M14): 91.1%; growth, % of control at 10 µM [20]: 57%
